Laboratory results reported in US20260166122A1, “USE OF MICROPEPTIDE MIAC” (NANJING ANJI BIOTECHNOLOGY CO., LTD, priority 2023, published 2026).
Like-named read-outs stand apart in the source and are kept apart here. Ends that are not written are not given here.

Legend:
[1] = system: human esophageal carcinoma cells CaES-17; format: cell-based; conditions: 72 h
[2] = system: human non-small cell lung cancer cells NCI-H1299; format: cell-based; conditions: 72 h
[3] = system: human breast cancer cells MCF-7; format: cell-based; conditions: 72 h
osteosarcoma MG-63 cells = test: transwell migration inhibition, MG-63; format: cell-based, human; conditions: 48 h
Description: (§1) Human prostate cancer, cervical cancer, osteosarcoma, ovarian cancer, melanoma, and hepatocellular carcinoma cells were inoculated into transwell chambers, with 100 μL per well; for an administration group, 100 μL of a micropeptide MIAC was added to each of the chambers at a different dose; and no medicament was added to a blank group. Then, 0.6 mL of a complete medium comprising 10% FBS was added to transwell lower chambers to stimulate cell migration, followed by incubation at 37° C. with 5% CO2 for 48 h. The culture medium in the wells was discarded, and the cells were fixed with methanol at room temperature for 30 min, stained with 0.1% crystal violet at room temperature for 10 min, and rinsed thoroughly with clear water; the unmigrated cells in the upper layer were wiped off with a cotton swab; and the migrated cells were observed under a microscope, and four visual fields were selected for photography and counting. The migration inhibition rate (MI) was calculated using the following formula: […]
(§2) where Ntest represents the number of migrated cells in the administration group, and Ncontrol represents the number of migrated cells in the blank control group.

[4] = system: malignant melanoma A375 cells; test: transwell migration inhibition, A375; format: cell-based, human; conditions: 48 h
Description: as §1, §2

[5] = system: hepatocellular carcinoma Hep3B cells; test: transwell migration inhibition, Hep3B; format: cell-based, human; conditions: 48 h
Description: as §1, §2

MERAGVPGFSPRRSSVEAKMQSTSCSVRKSSTVTAWPAVVLLLSWGQRRGG [MIAC, micropeptide inhibiting actin cytoskeleton]
OD ([1]; CaES-17, 50 μM): 1.168 ± 0.044
OD ([1]; CaES-17, 100 μM): 0.672 ± 0.051
OD ([1]; CaES-17, 200 μM): 0.466 ± 0.022
OD ([2]; NCI-H1299, 50 μM): 1.090 ± 0.022
OD ([2]; NCI-H1299, 100 μM): 0.754 ± 0.06
OD ([2]; NCI-H1299, 200 μM): 0.467 ± 0.012
OD ([3]; MCF-7, 50 μM): 1.281 ± 0.040
OD ([3]; MCF-7, 100 μM): 0.973 ± 0.027
OD ([3]; MCF-7, 200 μM): 0.814 ± 0.047
Inhibition rate (%) (osteosarcoma MG-63 cells; MG-63, 3.125 μmol/L): 64.05%
Number of migrated cells (osteosarcoma MG-63 cells; MG-63, 3.125 μmol/L): 129.5 ± 19.9
Inhibition rate (%) (osteosarcoma MG-63 cells; MG-63, 6.25 μmol/L): 83.21%
Number of migrated cells (osteosarcoma MG-63 cells; MG-63, 6.25 μmol/L): 60.5 ± 26.7
Inhibition rate (%) (osteosarcoma MG-63 cells; MG-63, 12.5 μmol/L): 90.98%
Number of migrated cells (osteosarcoma MG-63 cells; MG-63, 12.5 μmol/L): 32.5 ± 6.0
Inhibition rate (%) (osteosarcoma MG-63 cells; MG-63, 25 μmol/L): 93.13%
Number of migrated cells (osteosarcoma MG-63 cells; MG-63, 25 μmol/L): 24.8 ± 9.6
Inhibition rate (%) ([4]; A375, 12.5 μmol/L): 46.18%
Number of migrated cells ([4]; A375, 12.5 μmol/L): 139.3 ± 28.5
Inhibition rate (%) ([4]; A375, 25 μmol/L): 36.52%
Number of migrated cells ([4]; A375, 25 μmol/L): 164.3 ± 40.1
Inhibition rate (%) ([4]; A375, 50 μmol/L): 48.70%
Number of migrated cells ([4]; A375, 50 μmol/L): 132.8 ± 35.1
Inhibition rate (%) ([5]; 12.5 μmol/L): 66.54%
Number of migrated cells ([5]; 12.5 μmol/L): 110.8 ± 29.3
Inhibition rate (%) ([5]; 25 μmol/L): 65.33%
Number of migrated cells ([5]; 25 μmol/L): 114.8 ± 27.1
Inhibition rate (%) ([5]; 50 μmol/L): 64.95%
Number of migrated cells ([5]; 50 μmol/L): 116.0 ± 26.1
